According to paper PMC11965454, “Simultaneous determination of lesinurad and co-administered drugs used in management of gout comorbidities to uncover potential pharmacokinetic interaction in rat plasma” (Scientific Reports, 2025):
Like-named read-outs stand apart in the source and are kept apart here.

Experiments:
[1] = Stock solution stability (methanol), HPLC-DAD; assay type: physicochemical; conditions: stock solution in methanol, n = 3; for recovery at 6 h, 1000 ng/ml / recovery at 6 h, 10000 ng/ml / recovery at 6 h, 25000 ng/ml: 6 h at room temperature, read-out: Stock solution stability (room temp.) Recovery%; for recovery at 30 days, 1000 ng/ml / recovery at 30 days, 10000 ng/ml / recovery at 30 days, 25000 ng/ml: 30 days at 4 °C; for recovery at 6 h, 10000 ng/ml / recovery at 30 days, 10000 ng/ml: 10,000 ng/ml; for recovery at 6 h, 25000 ng/ml / recovery at 30 days, 25000 ng/ml: 25,000 ng/ml
[2] = Stability of the studied drugs in rat plasma (freeze-thaw, bench-top, long-term), HPLC-DAD; assay type: in vitro ADME; conditions: n = 3; for recovery at 6 h, 1000 ng/ml / recovery at 35 days, 1000 ng/ml / recovery at 1000 ng/ml: rat plasma; for recovery at 6 h, 1000 ng/ml / recovery at 6 h, 10000 ng/ml / recovery at 6 h, 25000 ng/ml: 6 h at room temperature; for recovery at 35 days, 1000 ng/ml / recovery at 35 days, 10000 ng/ml / recovery at 35 days, 25000 ng/ml: 35 days at -20 °C; for recovery at 1000 ng/ml / recovery at 10000 ng/ml / recovery at 25000 ng/ml: three cycles -20 °C / room temperature; for recovery at 6 h, 10000 ng/ml / recovery at 35 days, 10000 ng/ml / recovery at 10000 ng/ml: rat plasma, 10,000 ng/ml; for recovery at 6 h, 25000 ng/ml / recovery at 35 days, 25000 ng/ml / recovery at 25000 ng/ml: rat plasma, 25,000 ng/ml
Procedure: Stability studies were conducted by preparing low, medium and high plasma QC samples in triplicates under different conditions and comparing them with freshly prepared quality control samples. Namely, three freeze-thaw cycles (freeze at -20 °C then thaw at room temperature for three cycles), bench-top stability testing for 6 h at room temperature and long-term stability testing for 35 days at -20 °C.

[3] = Drug interaction pharmacokinetic study of LES and ETC, single oral dose, plasma levels by HPLC-DAD; assay type: in vivo, Sprague-Dawley rats; conditions: for k el: read-out: Ke (converted); for AUC: n=5; for Change of Ke: after repeated administration of the other drug vs alone; for Change of area under the curve (AUC): single oral dose following the repeated administration of the other drug vs alone
From the text: The HPLC-DAD system consisted of Agilent 1200 series (auto-injector, quaternary pump, vacuum degasser and diode array and multiple wavelength detector G1315 C/D and G1365 C/D) connected to a computer loaded with Agilent ChemStation Software (Agilent Technologies, Santa Clara, CA, USA). […] The chromatographic separation was achieved using a Zorbax Eclipse Plus C18 (4.6 × 250 mm, 5 μm particle size) column attached to Zorbax Eclipse Plus C18 (4.6 × 12.5 mm, 5 μm particle size) analytical guard column (Agilent Technologies, Santa Clara, CA, USA). The gradient elution was composed of the mobile phase: acetonitrile and 0.05 M potassium dihydrogen orthophosphate eluted in the ratios and at flow rates listed in Table 1 using an injection volume of 50 µL. All determinations were performed at 25 °C. All pH measurements were made using a Hanna pH meter, (RI, USA). Calibration was done using standard buffers of pH 4 and 7 at room temperature.
The internal standard DIC (0.05 mL) was added to each 0.2 mL rat plasma sample. To the rat plasma sample, 0.6 mL of acetonitrile were added. In order to equalize the final volumes in both; the standard calibration curve samples and the rat plasma samples, up to 1 mL of methanol were added. The samples were covered, vortexed for 1 min at high speed followed by centrifugation for 10 min at ~ 2500 × g. The organic layer was transferred to HPLC autosampler vials. For each sample, 50 µL were directly injected into the HPLC system.
The animal study has been designed and the results have been reported in accordance with the ARRIVE Guidelines. All animal experiments were conducted according to an experimental protocol approved by the Institutional Animal Care and Use Committee at Alexandria University (Serial Number 135) and in compliance with the Guide for the Care and Use of Laboratory Animals of the Institute for Laboratory Animal Research of the National Academy of Sciences, U.S.A. Animals were obtained from the animal facility at the Research and Innovation Hub at Alamein International University. Single dose pharmacokinetics of LES and ETC, as well as the effect of repeated administration of one on the PK parameters of the other reflecting the PK interactions if any, were assessed as described in our previous work[33]. Since the parameters of the oral pharmacokinetic investigation in experimental animals, in terms of feeding and fasting durations, oral dosing timing and volumes, blood sampling, as well as time intervals of redosing, can be controlled with relative ease, rat group sizes of 5–6 were sufficient for the detection of statistical difference in previous studies carried out in our laboratory[34],[35], and in other groups[36],[37], including studies that looked into the pharmacokinetics of ETC and LES[27],[38]. As will be seen below, the experiment was designed for paired comparison with before and ater measurements from the same rats, further increasing the power for statistical analysis. As such, ten healthy adult male Sprague-Dawley rats (8 weeks of age, ~ 250 g weight) were randomized into two groups of five rats each: LES PK group and ETC PK group. No criteria were set for animal allocation per group. Rats were housed in polycarbonate cages on wood shavings bedding at the animal facility at Alamein International University under controlled temperature (23 °C) and humidity (45%) and a 12-hour dark/light cycle. Rats were given ad libitum access to drinking water and commercial rodent chow (21% protein, Al-Fajr Animal Feed, Beheira, Egypt) prior to and during the experiment. The PK parameters of single doses of each drug were determined at baseline in the respective group and once more after seven days of administration of the other drug, without a washout period. To elaborate, on Day 0, following twelve hours of fasting, rats in each group received a single dose of the respective drug by oral gavage (15 mg/Kg for LES[27], and 5 mg/Kg for ETC[39]). […]

[4] = system: plasma albumin; conditions: cited from earlier work
[5] = male, Sprague-Dawley, ETC 5 mg/Kg single oral dose alone (Day 0), rat plasma, Mean ± SEM
[6] = male, Sprague-Dawley, plasma, LES 15 mg/Kg single oral dose alone (Day 0), rat, Mean ± SEM

recovery at 6 h, 1000 ng/ml [1] [%]	recovery at 30 days, 1000 ng/ml [1] [%]	recovery at 6 h, 10000 ng/ml [1] [%]	recovery at 30 days, 10000 ng/ml [1] [%]	recovery at 6 h, 25000 ng/ml [1] [%]	recovery at 30 days, 25000 ng/ml [1] [%]	recovery at 6 h, 1000 ng/ml [2] [%]	recovery at 35 days, 1000 ng/ml [2] [%]	recovery at 1000 ng/ml [2] [%]	recovery at 6 h, 10000 ng/ml [2] [%]	recovery at 35 days, 10000 ng/ml [2] [%]	recovery at 10000 ng/ml [2] [%]	recovery at 6 h, 25000 ng/ml [2] [%]	recovery at 35 days, 25000 ng/ml [2] [%]	recovery at 25000 ng/ml [2] [%]	Change of Ke ([3]; rat)	Change of area under the curve (AUC) ([3]; rat)	Compound	also measured
101	102	102	97.9	102	98.9	105	104	91.9	96.8	97.6	94.3	94.2	92.6	103	–	–	COC(=O)[C@@H]1CC2=CC(=O)CC[C@]2(C)[C@@]23O[C@@H]2C[C@@]2(C)[C@@H](CC[C@@]24CCC(=O)O4)[C@H]13 [EPL, eplerenone]	–
99.5	98.3	99.5	96.4	98.8	99.2	97.5	95.8	98	92.8	94.1	95.3	92.7	90.4	96.5	neither t1/2 nor Ke changed	increased	Cc1ccc(-c2ncc(Cl)cc2-c2ccc(S(C)(=O)=O)cc2)cn1 [ETC, etoricoxib]	Ka ([3]; ETC 5 mg/Kg single oral dose alone (Day 0), rat, method of residuals, Mean ± SEM): 1.82 ± 0.55 h⁻¹; k el ([3]; male, Sprague-Dawley, plasma, ETC 5 mg/Kg single oral dose alone (Day 0), rat, Mean ± SEM): 4.17e-05 s⁻¹; half-life ([3]; male, Sprague-Dawley, plasma, ETC 5 mg/Kg single oral dose alone (Day 0), rat, one phase decay, Mean ± SEM): 4.88 ± 0.56 h; Tmax ([3]; male, Sprague-Dawley, plasma, ETC 5 mg/Kg single oral dose alone (Day 0), rat, read-out: Tmax): 1 h; Cmax [3, 5]: 1170 ± 148 ng/mL; AUC [3, 5]: 11200 ng·h/mL; Change of absorption rate constant (Ka) ([3]; rat, ETC in the continued presence of LES vs alone): increased Ka; Binding to plasma albumin ([4]; ref PMID: 18840026): extensively bound to plasma albumin
97.3	98.7	96.5	97.2	94.8	99.2	92.5	93.8	91.6	92.5	94.7	93.8	96.1	94.6	92.7	neither t1/2 nor Ke changed	increased	O=C(O)CSc1nnc(Br)n1-c1ccc(C2CC2)c2ccccc12 [LES, lesinurad]	Tmax ([3]; LES 15 mg/Kg single oral dose alone (Day 0), rat): 2 h; Ka ([3]; LES 15 mg/Kg single oral dose alone (Day 0), rat, Mean ± SEM): 3.32 ± 0.78 h⁻¹; half-life [3, 6]: 3.96 ± 1.07 h; k el [3, 6]: 7.78e-05 s⁻¹; AUC ([3]; male, Sprague-Dawley, LES 15 mg/Kg single oral dose alone (Day 0), rat plasma, Mean ± SEM): 9600 ± 1890 ng·h/mL; Change of Cmax ([3]; rat, LES after repeated ETC administration vs alone): sharp increase in Cmax; Binding to plasma albumin ([4]; ref PMID: 31191704): extensively bound to plasma albumin
